This note sets out measurements from patent US7557085B2, “Metabolic-based methods for modulating gene expression” (Wisconsin Alumni Research Foundation, priority 2005, dated 2009).

pIC50: −log10 of the molar value. Read-outs that look alike come from different tables or passages of the source.

In assay [1] the test system is NRSF mediated repression. The assay is described as follows: gal4-NRSF luciferase reporter (G5-TATA-Luc) in JTC-19 cells. Type of assay: cell-based, rat. (In a reporter assay the amount or activity of a reporter protein is the signal.)
Assay [2] concerns the target T1, CtBP2 binding to NRSF (Mus musculus, UniProt P56546).
T1 construct: expressed in transfected cells; host or cells: HEK-293 cells
The assay is described as follows: immunoprecipitation of MYC-NRSF with KT3-CtBP2 from HEK cells at NADH concentrations. The protocol: Protein was harvested, incubated with the indicated concentrations of NADH and immunoprecipitated with anti-KT3 antibody or anti-Jun antibody as sham. Immune complexes were subjected to Western blot analysis with anti-MYC antibody.
As NADH concentrations regulate CtBP2 binding to a number of transcription factors (see Zhang et al., 2002, Id.; Mirnezami et al., 2003, Id.; Kim et al., 2005, Nat Struct Mol Biol 12: 423-8) and the non-NADH binding G189A CtBP mutant abolishes metabolic sensitivity of NRSF function, CtBP2 binding to NRSF was tested as a function of NADH concentration. In these experiments, HEK cells were co-transfected with plasmids expressing MYC-tagged NRSF or KT3-tagged CtBP2 as described above. Protein was harvested, incubated with NADH at concentrations from 0-1000 nM and immunoprecipitated with anti-KT3 antibody or anti-Jun antibody as sham. Immune complexes were subjected to Western blot analysis using an anti-MYC antibody conjugated with horseradish peroxidase as described above and in Roopra et al. (2004, Id.). […] Half maximal binding occurred at a physiologically relevant concentrations of ˜70 nM (data not shown).

For assay [3], the target named is T2, CtBP2 binding to NRSF (Homo sapiens, UniProt P56545).
T2 construct: made in house
The assay is described as follows: binding of recombinant 6x-HIS-CtBP2 to immunopurified MYC-tagged NRSF with NADH. Conditions: recombinant CtBP2 pre-incubated with NADH. The protocol: Immunoprecipitation experiments were performed to examine CtBP2/NRSF binding and the effect of increasing NADH concentration on such binding. In these experiments, soluble recombinant 6×-HIS-tagged CtBP2 (produced using the Qiagen Expression System, Qiagen, Valencia, Calif., according to the manufacturer's instructions) was pre-incubated with indicated concentrations of NADH and then added to immunopurified, antibody and bead bound MYC-tagged NRSF protein (Roopra et al., 2000, Id.) while maintaining the appropriate NADH concentration. The resulting complexes were harvested, washed and subjected to Western blot analysis with an antibody to the 6×-HIS tag on CtBP2 (Qiagen). CtBP2 binding to NRSF is abrogated in the presence of NADH, showing that the NRSF-CtBP2 interaction is sensitive to NADH concentration.

T1 sequence (P56546 whole entry): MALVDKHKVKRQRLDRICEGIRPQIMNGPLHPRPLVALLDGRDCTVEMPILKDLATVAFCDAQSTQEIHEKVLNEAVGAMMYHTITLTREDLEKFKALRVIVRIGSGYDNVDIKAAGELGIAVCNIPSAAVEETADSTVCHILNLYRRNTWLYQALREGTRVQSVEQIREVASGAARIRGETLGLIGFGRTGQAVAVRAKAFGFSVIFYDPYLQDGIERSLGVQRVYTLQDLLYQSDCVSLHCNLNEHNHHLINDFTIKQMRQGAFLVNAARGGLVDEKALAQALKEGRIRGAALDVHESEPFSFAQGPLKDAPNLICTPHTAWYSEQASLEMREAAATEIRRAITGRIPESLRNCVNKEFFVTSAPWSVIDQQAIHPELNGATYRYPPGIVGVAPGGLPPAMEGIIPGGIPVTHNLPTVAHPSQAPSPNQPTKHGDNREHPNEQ

`[Cl-].[Cl-].[Co+2]` [CoCl2, reference compound]: the “repression of luciferase reporter gene expression by NRSF (fold repression gal4 DBD/gal4-NRSF)” value in assay [1] was “decreased repression”.
In the case of `NC(=O)C1=CN([C@@H]2O[C@H](COP(=O)(O)OP(=O)(O)OC[C@H]3O[C@@H](n4cnc5c(N)ncnc54)[C@H](O)[C@@H]3O)[C@@H](O)[C@H]2O)C=CC1` [NADH], the pIC50 in assay [2] (HEK cell protein incubated with NADH 0-1000 nM, data not shown, read-out: NADH concentration of half maximal binding of CtBP to NRSF) is roughly 7.15. Besides, in assay [2] (increasing concentrations of NADH, 0-1000 nM, dose dependent), the “effect on binding of CtBP to NRSF” value is reported as “disrupted binding”. Also, the “CtBP2 binding to NRSF” value in assay [3] was “abrogated”.
Consider `O=C(O)CC(O)(CC(=O)O)C(=O)O` [citrate, reference compound], for which, in assay [1] (JTC-19 cells, 16 hrs), the “repression of luciferase reporter gene expression by NRSF (fold repression gal4 DBD/gal4-NRSF)” value is on record as “increased repression”.
